Results: US7569550B2, “14 and 15 membered ring compounds” (Glaxo Group Limited, priority 2003, dated 2009)
Structures can show the parent of a compound that is named as a salt.

Key:
Test in all cases: MIC, standard broth dilution method in microtitre
Type in all cases: cell-based
E. faecalis ATCC 29212 = conditions: Enterococcus faecalis, ATCC29212
Protocol: (§1) Using a standard broth dilution method in microtitre, compounds were tested for antibacterial activity. The compounds in the above examples gave minimum inhibitory concentrations (MICs) less than 1 microgram per millilitre against erythromycin-sensitive and erythromycin-resistant strains of Streptococcus pneumoniae and Streptococcus pyogenes.
(§2) In addition, the MIC (μg/ml) of test compounds against various organisms was determined including:
(§3) S. aureus Smith ATCC 13709, S. pneumoniae SP030, S. pyogenes 3565, E. faecalis ATCC 29212, H. influenzae ATCC 49247, M. catarrhalis ATCC 23246.

H. influenzae ATCC 49247 = conditions: Haemophilus influenzae, ATCC49247; H. influenzae ATCC 49247; read-out: MIC
Protocol: as §1, §2, §3

[1] = test system: M. catarrhalis ATCC 23246; conditions: Moraxella catarrhalis, ATCC23246
Protocol: as §1, §2, §3

[2] = test system: S. aureus Smith ATCC 13709; conditions: Staphylococcus aureus, ATCC13709
Protocol: as §1, §2, §3

S. pneumoniae SP030 = conditions: Streptococcus pneumoniae
Protocol: as §1, §2, §3

S. pyogenes 3565 = conditions: Streptococcus pyogenes
Protocol: as §1, §2, §3

[3] = test system: erythromycin resistant strains of Streptococcus pneumoniae
Protocol: as §1

[4] = test system: erythromycin resistant strains of Streptococcus pyogenes
Protocol: as §1

SMILES	MIC (E. faecalis ATCC 29212)	MIC (H. influenzae ATCC 49247)	MIC [1]	MIC [2]	MIC (S. pneumoniae SP030)	MIC (S. pyogenes 3565)	MIC [3]	MIC [4]
CC[C@@H]1OC(=O)[C@H](C)[C@H](O[C@@H]2C[C@](C)(OC)[C@H](OCCNCCNc3nc4c(cc3F)c(=O)c(C(=O)O)cn4CC)[C@H](C)O2)[C@@H](C)[C@H](O[C@H]2O[C@@H](C)C[C@@H](N(C)C)[C@H]2O)[C@](C)(OC)C[C@H](C)C(=O)[C@H](C)[C@H](O)[C@@]1(C)O [Example 18, 4″-O-{2-[2-(3-Carboxy-1-ethyl-6-fluoro-4-oxo-1,4-dihydro-[1,8]naphthyridin-7-ylamino)ethyl]-amino}-ethyl}-6-O-methyl-erythromycin A monoformate]	≤ 1 µg/mL	≤ 4 µg/mL	≤ 4 µg/mL	≤ 1 µg/mL	≤ 1 µg/mL	≤ 1 µg/mL	≤ 1 µg/mL	≤ 1 µg/mL
CC[C@@H]1OC(=O)[C@H](C)[C@H](O[C@@H]2C[C@](C)(OC)[C@H](OCCN(C)CCNc3nc4c(cc3F)c(=O)c(C(=O)O)cn4CC)[C@H](C)O2)[C@@H](C)[C@H](O[C@H]2O[C@@H](C)C[C@@H](N(C)C)[C@H]2O)[C@](C)(OC)C[C@H](C)C(=O)[C@H](C)[C@H](O)[C@@]1(C)O [Example 19]	≤ 1 µg/mL	≤ 4 µg/mL	≤ 4 µg/mL	≤ 1 µg/mL	≤ 1 µg/mL	≤ 1 µg/mL	≤ 1 µg/mL	≤ 1 µg/mL
CC[C@@H]1OC(=O)[C@H](C)[C@H](O[C@@H]2C[C@](C)(OC)[C@H](OCCCOCCCc3ccc4c(c3)c(=O)c(C(=O)O)cn4CC)[C@H](C)O2)[C@@H](C)[C@H](O[C@H]2O[C@@H](C)C[C@@H](N(C)C)[C@H]2O)[C@](C)(OC)C[C@H](C)C(=O)[C@H](C)[C@H](O)[C@@]1(C)O [Example 20, 4″-O-{3-[3-(3-Carboxy-1-ethyl-4-oxo-1,4-dihydro-quinolin-6-yl)-propoxy]-propyl}-6-O-methyl-erythromycin A monoformate]	≤ 1 µg/mL	≤ 4 µg/mL	≤ 4 µg/mL	≤ 1 µg/mL	≤ 1 µg/mL	≤ 1 µg/mL	≤ 1 µg/mL	≤ 1 µg/mL
CC[C@H]1OC(=O)[C@H](C)[C@@H](O[C@H]2C[C@@](C)(OC)[C@@H](OCCCNCCNc3nc4c(cc3F)c(=O)c(C(=O)O)cn4CC)[C@H](C)O2)[C@H](C)[C@@H](O[C@@H]2O[C@H](C)CC(N(C)C)[C@H]2O)[C@](C)(OC)C[C@@H](C)C(=O)[C@@H](C)[C@H]2NC(=O)O[C@@]21C (stereo partly drawn) [Example 21, 4″-O-{3-[2-(3-Carboxy-1-ethyl-6-fluoro-4-oxo-1,4-dihydro-[1,8]naphthyridin-7-ylamino)-ethylamino]-propyl}-6-O-methyl-11-desoxy-11-(R)-amino-erythromycin A 11,12-carbamate formate]	≤ 1 µg/mL	≤ 4 µg/mL	≤ 4 µg/mL	≤ 1 µg/mL	≤ 1 µg/mL	≤ 1 µg/mL	≤ 1 µg/mL	≤ 1 µg/mL
CC[C@H]1OC(=O)[C@H](C)[C@@H](O[C@H]2C[C@@](C)(OC)[C@@H](OCCCNCCCc3ccc4c(c3C)c(=O)c(C(=O)O)cn4CC)[C@H](C)O2)[C@H](C)[C@@H](O[C@@H]2O[C@H](C)CC(N(C)C)[C@H]2O)[C@](C)(OC)C[C@@H](C)C(=O)[C@@H](C)[C@H]2NC(=O)O[C@@]21C (stereo partly drawn) [Example 23, 4″-O-{3-[3-(3-Carboxy-1-ethyl-5-methyl-4-oxo-1,4-dihydro-quinolin-6-yl)-propylamino]-propyl}-6-O-methyl-11-desoxy-11-(R)-amino-erythromycin A 11,12-carbamate formate]	≤ 1 µg/mL	≤ 4 µg/mL	≤ 4 µg/mL	≤ 1 µg/mL	≤ 1 µg/mL	≤ 1 µg/mL	≤ 1 µg/mL	≤ 1 µg/mL
CC[C@H]1OC(=O)[C@H](C)[C@@H](O[C@H]2C[C@@](C)(OC)[C@@H](OCCCN(C)CCNc3nc4c(cc3F)c(=O)c(C(=O)O)cn4CC)[C@H](C)O2)[C@H](C)[C@@H](O[C@@H]2O[C@H](C)C[C@H](N(C)C)[C@H]2O)[C@](C)(OC)C[C@@H](C)C(=O)[C@@H](C)[C@H]2NC(=O)O[C@@]21C [Example 27, 4″-O-{3-[[2-(3-Carboxy-1-ethyl-6-fluoro-4-oxo-1,4-dihydro-[1,8]naphthyridin-7-ylamino)-ethyl]-methylamino]-propyl}-6-O-methyl-11-desoxy-11-(R)-amino-erythromycin A 11,12-carbamate formate]	≤ 1 µg/mL	≤ 4 µg/mL	≤ 4 µg/mL	≤ 1 µg/mL	≤ 1 µg/mL	≤ 1 µg/mL	≤ 1 µg/mL	≤ 1 µg/mL
CC[C@H]1OC(=O)[C@H](C)[C@@H](O[C@H]2C[C@@](C)(OC)[C@@H](OCCCN(C)CCOc3cc4c5c(c3)c(=O)c(C(=O)O)cn5CCC4)[C@H](C)O2)[C@H](C)[C@@H](O[C@@H]2O[C@H](C)C[C@H](N(C)C)[C@H]2O)[C@](C)(OC)C[C@@H](C)C(=O)[C@@H](C)[C@H]2NC(=O)O[C@@]21C [Example 28, 4″-O-{3-[[2-(2-Carboxy-1-oxo-6,7-dihydro-1H,5H-pyrido[3,2,1-ij]quinolin-9-yloxy)-ethyl]-methylamino]-propyl}-6-O-methyl-11-desoxy-11-(R)-amino-erythromycin A 11,12-carbamate formate]	≤ 1 µg/mL	≤ 4 µg/mL	≤ 4 µg/mL	≤ 1 µg/mL	≤ 1 µg/mL	≤ 1 µg/mL	≤ 1 µg/mL	≤ 1 µg/mL
CC[C@@H]1OC(=O)[C@H](C)[C@H](O[C@@H]2C[C@](C)(OC)[C@H](OCCCN(C)CCCc3ccc4c(c3)c(=O)c(C(=O)O)cn4CC)[C@H](C)O2)[C@@H](C)[C@H](O[C@H]2O[C@@H](C)C[C@@H](N(C)C)[C@H]2O)[C@](C)(OC)C[C@H](C)C(=O)[C@H](C)[C@H]2NC(=O)O[C@@]12C [Example 29, 4″-O-{3-[[3-(3-Carboxy-1-ethyl-4-oxo-1,4-dihydro-quinolin-6-yl)-propyl]-methylamino]-propyl}-6-O-methyl-11-desoxy-11-(R)-amino-erythromycin A 11,12-carbamate formate]	≤ 1 µg/mL	≤ 4 µg/mL	≤ 4 µg/mL	≤ 1 µg/mL	≤ 1 µg/mL	≤ 1 µg/mL	≤ 1 µg/mL	≤ 1 µg/mL
CC[C@H]1OC(=O)[C@H](C)[C@@H](O[C@H]2C[C@@](C)(OC)[C@@H](OCCCN(C)CCCc3cnc4c(c3)c(=O)c(C(=O)O)cn4CC)[C@H](C)O2)[C@H](C)[C@@H](O[C@@H]2O[C@H](C)C[C@H](N(C)C)[C@H]2O)[C@](C)(OC)C[C@@H](C)C(=O)[C@@H](C)[C@H]2NC(=O)O[C@@]21C [Example 30, 4″-O-{3-[[3-(3-Carboxy-1-ethyl-4-oxo-1,4-dihydro-6-[1,8]naphthryidinyl)-propyl]-methylamino]-propyl}-6-O-methyl-11-desoxy-11-(R)-amino-erythromycin A 11,12-carbamate]	≤ 1 µg/mL	≤ 4 µg/mL	≤ 4 µg/mL	≤ 1 µg/mL	≤ 1 µg/mL	≤ 1 µg/mL	≤ 1 µg/mL	≤ 1 µg/mL
